In US20020035998A1, “Method for treatment of cancer and infectious disease” (priority 1995, published 2002):

What was measured:
[1] = test system: Daudi target cells; assay: NK cell cytotoxicity (NKCC), 6-hour 51Cr-release assay against Daudi target cells; format: cell-based, human; details: for NKCC after treatment with Medium: no IFN; for potency and effect in intensifying baseline NKCC and restoring the NK cell's response to IFN-α: compared with serotonin, Table 4; for NKCC (Cell Lysis %) ± SEM after treatment with IFN / NKCC (Cell Lysis %) ± SEM after treatment with Ran + IFN / NKCC (Cell Lysis %) ± SEM after treatment with Ran: Percoll fraction 8; for NKCC (Cell Lysis %) ± SEM after treatment with Ran + IFN: agonist 10^−4 M plus ranitidine 10^−4 M plus IFN-α 25 U/ml; for NKCC (Cell Lysis %) ± SEM after treatment with Ran: agonist 10^−4 M plus ranitidine 10^−4 M; for influence on the effect of serotonin on NKCC: ketanserin and ondansetron in equimolar concentrations
From the text: (§1) MNC were obtained from peripheral venous blood from healthy human blood donors by Ficoll-Hypaque centrifuging, followed by Percoll density-gradient fractionation (Timonen and Saksela, 1980, J. Immunol. Methods 36, 285-291; Hellstrand and Hermodsson, 1990, Scand. J. Immunol. 31, 631-645).
(§2) The target cells used in these experiments were K562, an NK-cell sensitive erythroleukemic cell line, or Daudi, a relatively NK-insensitive EBV-transformed B-cell lymphoblastoid cell line.
(§3) The NKCC was determined six times as the specific ^51Cr-release for a NMNC: target-cell ratio of between 30:1 and 3.8:1 in two-fold dilution gradients. The suspensions of MNC/target cells were incubated in microplates at 37° C. for 6 hours (Daudi) or 16 hours (K562). The supernatant solution was then collected and examined for radioactivity in a gamma counter. The maximum ^51Cr-release was measured in target cell cultures treated with Triton X-100. The NKCC was calculated as the cell lysis % by the formula 100×(experimental release−spontaneous release/maximum release−spontaneous release)=cell lysis %.
(§4) In the results shown in Table 2, MNC from five different donors were used. All compounds were added to mixtures of MNC and target cells at the start of a 6 h (Daudi) or 16 h (K562) effecter and target cell incubation. The effecter cells were obtained from Percoll fractions 7-8, containing 33-55% monocytes.
In the experiment shown in Table 3, culture medium (control), histamine (10^−4 M), dimaprit (10^−4 M), ranitidine (ran) (10^−4 M) and/or IFN-α (25 U/ml) were added at the start of a 6-hour ^51Cr release assay using Daudi target cells. The data are representative of three similar experiments. NKCC is given as mean cell lysis %±SEM of six determinations. The effecter cells were recovered from a low-density Percoll fraction 8, containing around 40% monocytes.
In the experiment shown in Table 4, culture medium (control), serotonin, 8-OH-DPAT (+)-ALK and/or IFN-α (25 U/ml) were added at the start of a 6-hour ^51Cr-release assay against Daudi target cells. The NKCC is given as cell lysis %±SEM of six determinations. The effector cells were recovered from the low-density Percoll fraction 7, containing around 36% monocytes.

[2] = test system: K562 target cells; assay: NK cell cytotoxicity (NKCC), 16-hour 51Cr-release assay against K562 target cells; format: cell-based, human; details: for cytotoxicity against K562 in the NK cell-concentrated lymphocyte fraction: eluted lymphocytes without monocytes, 16-hour assay; for basal cytotoxicity of lymphocytes in mixtures of monocytes and lymphocytes / monocyte induced inhibition of the NK cell response to IFN-α: mixtures of eluted monocytes and NK cell-enriched lymphocytes; for NK cell cytotoxicity (NKCC) after treatment: serotonin 10^−4 M and/or IFN-α 25 U/ml, 16 h, 10^4 K562, mean ± SEM of six
From the text: as §1, §2, §3
A low-density Percoll fraction was separated by counterflow centrifuge elusion (CCE) in a monocyte and in a lymphocyte fraction. The monocyte fraction was concentrated to >90% purity whereupon the contaminating cells consisted of large lymphocytes. The lymphocyte fractions obtained by CCE contained <3% monocytes, determined by morphology and Leu-M3 (CD14) antigen expression. The lymphocytes were […], […] , CD3^+/16^−/56^− T cells (45-50%), CD3^+/16^+/56^+ cells (1-5%), determined by flow cytometry.
J The eluted monocytes and/or the NK cell-concentrated low-density lymphocytes were treated with IFN-α and histamine/serotonin. The compounds were added, separately or in combination, to mixtures of MNC and K562 target cells at the start of a 16-hour ^51Cr-release assay. The cytotoxicity against K562 in the NK cell-concentrated lymphocyte fraction was increased by IFN-α and unaffected by histamine or serotonin. […] The addition of eluted monocytes to the NK cell concentrated lymphocytes suppressed the baseline cytotoxicity to K562.
In the experiments reported in Table 1, eluted lymphocytes were mixed with monocytes as shown in the table, in a total volume of 150 μl. The data are NKCC (mean ±SEM) of six determinations. Serotonin 10^−4 M and/or IFN-α (25 U/ml) was added at the start of a 16-hour microcytotoxicity test against 10^4 K562 target cells.
as §4
Cells from the monocyte-containing Percoll fraction 8 were incubated with culture medium, histamine (10^−4 M) or serotonin (10^−4 M) in the presence of IFN-α (0-100 U/ml). The data shown are NKCC (cell lysis %; mean±SEM of six determinations). The compounds were added at the start of a 16 h microcytotoxicity test against K 562 target cells.

[3] = agonist 10^−4 M plus IFN-α 25 U/ml, Daudi 6 h, Percoll fraction 7
[4] = agonist 10^−4 M, Daudi 6 h, Percoll fraction 7, around 36% monocytes
[5] = agonist 10^−4 M plus IFN-α 25 U/ml, Daudi 6 h
[6] = named agent(s) only, no further additive: histamine, dimaprit, ranitidine 10^−4 M, IFN-α 25 U/ml, Daudi 6 h, Percoll fraction 8, around 40% monocytes

CCCN(CCC)C1CCc2cccc(O)c2C1 (stereo not drawn) [8-OH-DPAT, 8-hydroxy-2-(di-n-propylamino)tetralin, reference compound]
NKCC after treatment with IFN [1, 3]: 43.3 ± 1%
NKCC after treatment with Medium [1, 4]: 8.8 ± 1%
potency and effect in intensifying baseline NKCC and restoring the NK cell's response to IFN-α [1]: comparable to that of serotonin

NCCc1c[nH]cn1 [Histamine, histamine]
NKCC (cell lysis % ± SEM) ([2]; Exp 1, K562, 15:1, histamine 10^−4 M plus IFN 25 U/ml): 76.4 ± 3%
NKCC (cell lysis % ± SEM) ([2]; Exp 1, K562, 15:1, histamine 10^−5 M plus IFN 25 U/ml): 74.1 ± 1%
NKCC (cell lysis % ± SEM) ([2]; Exp 1, K562, 15:1, histamine 10^−5 M, medium (no IFN)): 54.7 ± 1%
NKCC (cell lysis % ± SEM) ([2]; Exp 1, K562, 15:1, histamine 10^−6 M plus IFN 25 U/ml): 66.0 ± 2%
NKCC (cell lysis % ± SEM) ([2]; Exp 1, K562, 15:1, histamine 10^−6 M, medium (no IFN)): 39.2 ± 1%
NKCC (cell lysis % ± SEM) ([2]; Exp 1, K562, MNC/target 15:1, histamine 10^−4 M, medium (no IFN), monocyte-containing Percoll fractions 7-8): 55.5 ± 1%
NKCC (cell lysis % ± SEM) ([2]; Exp 2, K562, 15:1, histamine 10^−4 M plus IFN 25 U/ml): 67.9 ± 2%
NKCC (cell lysis % ± SEM) ([2]; Exp 2, K562, 15:1, histamine 10^−4 M, medium (no IFN)): 32.4 ± 1%
NKCC (cell lysis % ± SEM) ([2]; Exp 2, K562, 15:1, histamine 10^−5 M plus IFN 25 U/ml): 66.2 ± 1%
NKCC (cell lysis % ± SEM) ([2]; Exp 2, K562, 15:1, histamine 10^−5 M, medium (no IFN)): 27.4 ± 1%
NKCC (cell lysis % ± SEM) ([2]; Exp 2, K562, 15:1, histamine 10^−6 M plus IFN 25 U/ml): 55.4 ± 1%
NKCC (cell lysis % ± SEM) ([2]; Exp 2, K562, 15:1, histamine 10^−6 M, medium (no IFN)): 23.2 ± 2%
NKCC (cell lysis % ± SEM) ([2]; Exp 3, K562, 15:1, histamine 10^−4 M plus IFN 25 U/ml): 71.9 ± 1%
NKCC (cell lysis % ± SEM) ([2]; Exp 3, K562, 15:1, histamine 10^−4 M, medium (no IFN)): 43.3 ± 1%
NKCC (cell lysis % ± SEM) ([2]; Exp 3, K562, 15:1, histamine 10^−5 M plus IFN 25 U/ml): 66.5 ± 2%
NKCC (cell lysis % ± SEM) ([2]; Exp 3, K562, 15:1, histamine 10^−5 M, medium (no IFN)): 38.6 ± 1%
NKCC (cell lysis % ± SEM) ([2]; Exp 3, K562, 15:1, histamine 10^−6 M plus IFN 25 U/ml): 56.3 ± 2%
NKCC (cell lysis % ± SEM) ([2]; Exp 3, K562, 15:1, histamine 10^−6 M, medium (no IFN)): 29.4 ± 1%
cytotoxicity against K562 in the NK cell-concentrated lymphocyte fraction [2]: unaffected
basal cytotoxicity of lymphocytes in mixtures of monocytes and lymphocytes [2]: restored
monocyte induced inhibition of the NK cell response to IFN-α [2]: eliminated
NKCC (cell lysis % ± SEM) ([1]; Exp 4, Daudi, 30:1, histamine 10^−4 M plus IFN 25 U/ml): 31.7 ± 1%
NKCC (cell lysis % ± SEM) ([1]; Exp 4, Daudi, 30:1, histamine 10^−5 M plus IFN 25 U/ml): 28.3 ± 1%
NKCC (cell lysis % ± SEM) ([1]; Exp 4, Daudi, 30:1, histamine 10^−5 M, medium (no IFN)): 3.5 ± 2%
NKCC (cell lysis % ± SEM) ([1]; Exp 4, Daudi, 30:1, histamine 10^−6 M plus IFN 25 U/ml): 14.1 ± 1%
NKCC (cell lysis % ± SEM) ([1]; Exp 4, Daudi, 30:1, histamine 10^−6 M, medium (no IFN)): 1.1 ± 0.3%
NKCC (cell lysis % ± SEM) ([1]; Exp 4, Daudi, MNC/target 30:1, histamine 10^−4 M, medium (no IFN)): 4.4 ± 1%
NKCC (cell lysis % ± SEM) ([1]; Exp 5, Daudi, 30:1, histamine 10^−4 M plus IFN 25 U/ml): 61.3 ± 3%
NKCC (cell lysis % ± SEM) ([1]; Exp 5, Daudi, 30:1, histamine 10^−4 M, medium (no IFN)): 13.5 ± 1%
NKCC (cell lysis % ± SEM) ([1]; Exp 5, Daudi, 30:1, histamine 10^−5 M plus IFN 25 U/ml): 52.3 ± 2%
NKCC (cell lysis % ± SEM) ([1]; Exp 5, Daudi, 30:1, histamine 10^−5 M, medium (no IFN)): 9.7 ± 1%
NKCC (cell lysis % ± SEM) ([1]; Exp 5, Daudi, 30:1, histamine 10^−6 M plus IFN 25 U/ml): 31.7 ± 1%
NKCC (cell lysis % ± SEM) ([1]; Exp 5, Daudi, 30:1, histamine 10^−6 M, medium (no IFN)): 2.5 ± 1%
NKCC (Cell Lysis %) ± SEM after treatment with IFN [1, 5]: 31.7 ± 0.3%
NKCC (Cell Lysis %) ± SEM after treatment with Ran + IFN ([1]; Daudi 6 h): 1.6 ± 0.2%
NKCC (Cell Lysis %) ± SEM after treatment with Ran ([1]; Daudi 6 h): 1.5 ± 0.3%
NKCC (cell lysis % ± SEM) [1, 6]: 9.4 ± 0.3%

O=C(c1ccc(F)cc1)C1CCN(CCn2c(=O)[nH]c3ccccc3c2=O)CC1 [Ketanserin, reference compound]
influence on the effect of serotonin on NKCC ([1]; ranitidine 10^−4 M): did not influence the effect of serotonin

CN(C)CCCSC(=N)N [Dimaprit, dimaprit, reference compound]
NKCC (Cell Lysis %) ± SEM after treatment with IFN [1, 5]: 32.6 ± 1%
NKCC (Cell Lysis %) ± SEM after treatment with Ran + IFN ([1]; Daudi 6 h): 0.5 ± 0.5%
NKCC (Cell Lysis %) ± SEM after treatment with Ran ([1]; Daudi 6 h): 0.4 ± 0.4%
NKCC (cell lysis % ± SEM) [1, 6]: 6.4 ± 1%
effect of histamine on monocyte-induced suppression of resting and IFN-α-activated NK cells: influence of the agent ([1]; simultaneous treatment, Table 3): imitated

Cc1nccn1CC1CCc2c(c3ccccc3n2C)C1=O (stereo not drawn) [ondansetron, reference compound]
influence on the effect of serotonin on NKCC ([1]; ranitidine 10^−4 M): did not influence the effect of serotonin

CCCN(CCC)[C@H]1CCc2cccc(O)c2[C@H]1C (relative stereo) [(+)-ALK-3, cis-8-hydroxy-1-methyl-2-(di-n-propylamino)tetralin, reference compound]
NKCC after treatment with IFN [1, 3]: 40.4 ± 1%
NKCC after treatment with Medium [1, 4]: 9.1 ± 1%
potency and effect in intensifying baseline NKCC and restoring the NK cell's response to IFN-α [1]: comparable to that of serotonin

CNC(=C[N+](=O)[O-])NCCSCc1ccc(CN(C)C)o1 [Ran, ranitidine, reference compound]
NKCC (cell lysis % ± SEM) [1, 6]: 0.0 ± 0.1%

NCCc1c[nH]c2ccc(O)cc12 [Serotonin, serotonin]
cytotoxicity against K562 in the NK cell-concentrated lymphocyte fraction [2]: unaffected
basal cytotoxicity of lymphocytes in mixtures of monocytes and lymphocytes [2]: restored
monocyte induced inhibition of the NK cell response to IFN-α [2]: eliminated
NK cell cytotoxicity (NKCC) after treatment ([2]; monocytes 0, lymphocytes 12 (×10^−4)): 34 ± 3%
NK cell cytotoxicity (NKCC) after treatment ([2]; monocytes 6, lymphocytes 12 (×10^−4)): 31 ± 2%
NK cell cytotoxicity (NKCC) after treatment ([2]; monocytes 12, lymphocytes 12 (×10^−4)): 31 ± 2%
NKCC after treatment with IFN [1, 3]: 44.3 ± 1%
NKCC after treatment with Medium [1, 4]: 10.4 ± 1%
NKCC after treatment with IFN ([1]; agonist 10^−5 M plus IFN-α 25 U/ml, Daudi 6 h, Percoll fraction 7): 33.2 ± 1%
NKCC after treatment with Medium ([1]; agonist 10^−5 M, Daudi 6 h, Percoll fraction 7): 4.5 ± 0.3%
NKCC after treatment with IFN ([1]; agonist 10^−6 M plus IFN-α 25 U/ml, Daudi 6 h, Percoll fraction 7): 12.3 ± 1%
NKCC after treatment with Medium ([1]; agonist 10^−6 M, Daudi 6 h, Percoll fraction 7): 2.2 ± 0.4%
